Test [1] deals with IL-17 production by CD4 T cells. Kind of test: Human Th17 assay (IL-17 production by CD4 T cells under Th17 differentiation conditions). The following applies: Homo sapiens, CD4+ T, 72 h, IL-17 in supernatant after 3 days. The class given is cell-based. The method in brief:
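Primary CD4+ T cells from healthy-donor PBMC, preincubated 1 h with titrated compound (0.2% DMSO), then activated with anti-CD3/CD28 beads plus anti-IL4, anti-IFNγ, IL1β, IL23, IL6, TGFβ and IL2.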

Test [2] deals with T1, human RORγt LBD (Homo sapiens, UniProt P51449).
T1 construct: expressed in transfected cells
T1 sequence (P51449 258-518): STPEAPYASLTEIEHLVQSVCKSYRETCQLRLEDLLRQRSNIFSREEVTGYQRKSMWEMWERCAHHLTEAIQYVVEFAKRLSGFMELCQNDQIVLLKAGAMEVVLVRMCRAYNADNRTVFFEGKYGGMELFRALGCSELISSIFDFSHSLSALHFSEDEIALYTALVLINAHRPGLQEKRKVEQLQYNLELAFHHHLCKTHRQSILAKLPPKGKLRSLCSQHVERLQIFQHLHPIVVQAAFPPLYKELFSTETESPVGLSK
Kind of test: RORγt reporter assay (GAL4-RORγt LBD luciferase in HEK293T cells). Conditions: for IC50: HEK293T cells, 24 hours compound treatment; for inhibition at 6 µM: HEK-293T, read-out: RORγt reporter Assay, % inhibition @ 6 μM, HEK293T cells, 6 μM compound. The class given is cell-based. The method, boiled down:
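Read-out is the firefly-to-renilla luciferase ratio versus compound concentration, after 24 h compound exposure of cells in phenol-red-free DMEM/5% lipid-reduced FCS. Cells were HEK293T bulk-transfected with a GAL4-responsive firefly reporter (pGL4.31) and GAL4 DBD–wild-type human RORγt LBD fusion (pBIND, renilla as transfection/viability control).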
(In general: Reporter assays use an easily measured gene product as a stand-in for the process of interest.)

For test [3], the target named is T2, human RORγt ligand binding domain (RORγt LBD) (Homo sapiens, UniProt P51449).
T2 construct: His-tag (N); TurboTEV protease cleavage site (ENLYFQG) (N); made in house; host or cells: E. coli (pHIS1, modified pET vector)
T2 sequence (P51449 with tags, fused parts or gaps): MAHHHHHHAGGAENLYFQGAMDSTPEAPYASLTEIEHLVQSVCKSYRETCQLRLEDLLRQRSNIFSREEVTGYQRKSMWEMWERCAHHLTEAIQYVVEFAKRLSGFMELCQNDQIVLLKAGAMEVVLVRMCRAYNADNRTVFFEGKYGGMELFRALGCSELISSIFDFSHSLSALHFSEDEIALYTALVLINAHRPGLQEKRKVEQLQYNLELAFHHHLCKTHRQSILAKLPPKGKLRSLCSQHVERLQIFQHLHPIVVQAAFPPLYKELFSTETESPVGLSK
Kind of test: RORγt ThermoFluor assay (thermal shift, ligand binding affinity). The following applies: estimated from concentration response of thermal shift. The method, boiled down: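 Thermal shift of 0.065 mg/mL RORγt with 60 μM 1,8-ANS in 100 mM Hepes pH 7.0, 10 mM NaCl, 2.5 mM GSH, 0.002% Tween-20. Compounds in 1:2 series from 10 mM DMSO stock. Dye fluorescence (500 nm emission) tracked versus temperature; ΔTm used to derive KD.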

Structures can show the parent of a compound that is named as a salt.

The term IC50 denotes the concentration that gives 50% inhibition. The low end stands for greater potency in that assay, the high end for weaker potency in that assay. As usually defined, the inhibition is the drop in the measured response relative to a control, in per cent. In general, Kd refers to the concentration at which binding is half-saturated. As to `N#Cc1nc2ccc(C(O)(c3ccc(C(N)=O)nc3)c3cccc(Cl)c3)cc2c(C#N)c1-c1ccccc1` (stereo not shown) [Example 112, 5-[(3-Chlorophenyl)(2,4-dicyano-3-phenylquinolin-6-yl)hydroxymethyl]pyridine-2-carboxamide•TFA], half-maximal inhibition in test [1] (IC50) was put at 480 nM. For the same molecule, in test [2], half-maximal inhibition (IC50) was put at 380 nM and the inhibition at 6 µM stood at 100%. Further, the Kd in test [3] is 120 nM.
The molecule `CCN(CC)c1nc2ccc(C(O)(c3cccnc3)c3cccc(Cl)c3)cc2c(C#N)c1-c1ccccc1` (stereo not shown) [Example 113, 6-[(3-Chlorophenyl)(hydroxy)pyridin-3-ylmethyl]-2-(diethylamino)-3-phenylquinoline-4-carbonitrile•TFA] came in with an IC50 in test [1] of 250 nM. In test [2], the IC50 came to 86 nM and the inhibition at 6 µM is 101%. Further, the Kd in test [3] was 1800 nM.
On to `Cn1cncc1C(O)(c1cncnc1)c1ccc2nc(Cl)c(-c3ccccc3)c(Cl)c2c1` (stereo not shown) [Example 120, (2,4-Dichloro-3-phenylquinolin-6-yl)(1-methyl-1H-imidazol-5-yl)(pyrimidin-5-yl)methanol], for which 400 nM corresponded to half-maximal inhibition in test [1] (IC50). Besides, in test [2], the half-inhibitory concentration (IC50) came to 170 nM and the inhibition at 6 µM came to 98%. In addition, in test [3], the Kd is 130 nM.
In the same order, the values of `Cn1cncc1C(O)(c1ccc2nc(Cl)c(-c3ccccc3)c(Cl)c2c1)c1cnccn1` (stereo not shown) [Example 122, (2,4-Dichloro-3-phenylquinolin-6-yl)(1-methyl-1H-imidazol-5-yl)(pyrazin-2-yl)methanol] are 500 nM, 470 nM, 91% and 250 nM.
The matching figures for `OC(c1ccc(Cl)cc1)(c1cncnc1)c1ccc2nc(Cl)c(-c3ccccc3)c(Cl)c2c1` (stereo not shown) [Example 124, (4-Chlorophenyl)(2,4-dichloro-3-phenylquinolin-6-yl)(pyrimidin-5-yl)methanol]: 920 nM, 220 nM, 100% and 120 nM.
As to `COC(c1ccncc1)(c1ccc2nc(N(C)C)c(-c3ccccc3)c(Cl)c2c1)c1cncn1C` (stereo not shown) [Example 128, 4-Chloro-6-(methoxy(1-methyl-1H-imidazol-5-yl)(pyridin-4-yl)methyl)-N,N-dimethyl-3-phenylquinolin-2-amine•TFA], the half-maximal inhibitory concentration (IC50) in test [1] amounted to 240 nM. In test [2], the IC50 was 140 nM and the inhibition at 6 µM was 98%. Also, the Kd in test [3] is 97 nM.
In the same order, the values of `COc1ccc(C(O)(c2ccc3nc(Cl)c(-c4ccccc4)c(Cl)c3c2)c2c(C)noc2C)cn1` (stereo not shown) [Example 129, (2,4-Dichloro-3-phenylquinolin-6-yl)(3,5-dimethylisoxazol-4-yl)(6-methoxypyridin-3-yl)methanol•TFA] are 80 nM, 160 nM, 100% and 6.2 nM.
The matching figures for `COc1ccc(C(O)(c2ccc3nc(Cl)c(-c4ccccc4)c(Cl)c3c2)c2cc(C)no2)cn1` (stereo not shown) [Example 131, (2,4-Dichloro-3-phenylquinolin-6-yl)(6-methoxypyridin-3-yl)(3-methylisoxazol-5-yl)methanol•TFA]: 210 nM, 91 nM, 100% and 26 nM.
In the same order, the values of `Cc1cc(C(O)(c2ccc3nc(Cl)c(-c4ccccc4)c(Cl)c3c2)c2cncn2C)on1` (stereo not shown) [Example 132, (2,4-Dichloro-3-phenylquinolin-6-yl)(1-methyl-1H-imidazol-5-yl)(3-methylisoxazol-5-yl)methanol•TFA] are 130 nM, 48 nM, 103% and 16 nM.
As to `Cc1cc(C(O)(c2ccc(Cl)cc2)c2ccc3nc(N(C)C)c(-c4ccccc4)c(Cl)c3c2)on1` (stereo not shown) [Example 134, (4-Chloro-2-(dimethylamino)-3-phenylquinolin-6-yl)(4-chlorophenyl)(3-methylisoxazol-5-yl)methanol •TFA], the IC50 in test [1] is 1100 nM; in test [2], 520 nM. Also, in test [2], the inhibition at 6 µM was 96%. In addition, in test [3], the Kd was 290 nM.
In the case of `Cc1ncc(C(O)(c2ccc(Cl)cc2)c2ccc3nc(C#N)c(-c4ccccc4)c(Cl)c3c2)n1C` (stereo not shown) [Example 139, 4-Chloro-6-((4-chlorophenyl)(1,2-dimethyl-1H-imidazol-5-yl)(hydroxy)methyl)-3-phenylquinoline-2-carbonitrile•TFA], the IC50 in test [1] amounted to 350 nM. Also, in test [2], the IC50 worked out at 310 nM and the inhibition at 6 µM worked out at 102%. The dissociation constant Kd in test [3] is 61 nM.
In the same order, the values of `Cc1nc(C(O)(c2ccc3nc(Cl)c(-c4ccccc4)c(Cl)c3c2)c2cncn2C)cs1` (stereo not shown) [Example 140, (2,4-Dichloro-3-phenylquinolin-6-yl)(1-methyl-1H-imidazol-5-yl)(2-methylthiazol-4-yl)methanol] are 1800 nM, 320 nM, 105% and 560 nM.
Regarding `Cn1c(C(O)(c2ccc(Cl)cc2)c2ccc3nc(Cl)c(-c4ccccc4)c(Cl)c3c2)cnc1Cl` (stereo not shown) [Example 141, (2-Chloro-1-methyl-1H-imidazol-5-yl)(4-chlorophenyl)(2,4-dichloro-3-phenylquinolin-6-yl)methanol], the IC50 in test [1] was 1200 nM. In addition, in test [2], the IC50 turned out to be 210 nM and the inhibition at 6 µM turned out to be 99%. For the same molecule, the Kd in test [3] is 620 nM.
For `Cc1ccc(C(O)(c2ccc3nc(Cl)c(-c4ccccc4)c(Cl)c3c2)c2cncn2C)c(C)n1` (stereo not shown) [Example 142, (2,4-Dichloro-3-phenylquinolin-6-yl)(2,6-dimethylpyridin-3-yl)(1-methyl-1H-imidazol-5-yl)methanol], the results for the IC50 in test [1] and in test [2] were 140 nM and 92 nM, respectively. For the same molecule, in test [2], the inhibition at 6 µM was found to be 105%. In addition, in test [3], the Kd was 7.6 nM.
Turning to `CSc1ncc(C(O)(c2ccc(Cl)cc2)c2ccc3nc(Cl)c(-c4ccccc4)c(Cl)c3c2)n1C` (stereo not shown) [Example 145, (4-Chlorophenyl)(2,4-dichloro-3-phenylquinolin-6-yl)(1-methyl-2-(methylthio)-1H-imidazol-5-yl)methanol], the IC50 in test [1] amounted to 1200 nM. In test [2], the IC50 came to 250 nM and the inhibition at 6 µM was found to be 93%. Besides, in test [3], the Kd was 2100 nM.
The matching figures for `OC(c1ccc(Cl)cc1)(c1cccnc1)c1ccc2nc(-c3cncnc3)c(-c3ccccc3)c(Cl)c2c1` (stereo not shown) [Example 152, (4-Chloro-3-phenyl-2-(pyrimidin-5-yl)quinolin-6-yl)(4-chlorophenyl)(pyridin-3-yl)methanol]: 1200 nM, 350 nM, 97% and 770 nM.
Take `Cn1cncc1C(O)(c1cccnc1)c1cc(F)c2nc(Cl)c(-c3ccccc3)c(Cl)c2c1` (stereo not shown) [Example 154, (2,4-Dichloro-8-fluoro-3-phenylquinolin-6-yl)(1-methyl-1H-imidazol-5-yl)(pyridin-3-yl)methanol•TFA]: in test [1], 1900 nM corresponded to half-maximal inhibition (IC50). In test [2], the IC50 is 970 nM and the inhibition at 6 µM turned out to be 90%. The Kd in test [3] is 120 nM.
Regarding `Cc1ccc(C(O)(c2cc(C)c3nc(Cl)c(-c4ccccc4)c(Cl)c3c2)c2sccc2C)cn1` (stereo not shown) [Example 158, (2,4-Dichloro-8-methyl-3-phenylquinolin-6-yl)(6-methylpyridin-3-yl)(3-methylthiophen-2-yl)methanol], the IC50 in test [1] is over 6000 nM; in test [2], 490 nM. Also, the inhibition at 6 µM in test [2] came to 79%. The Kd in test [3] is 2000 nM.
As to `Cc1cc(C(O)(c2cc(C)c3nc(Cl)c(-c4ccccc4)c(Cl)c3c2)c2cncn2C)ccn1` (stereo not shown) [Example 159, (2,4-Dichloro-8-methyl-3-phenylquinolin-6-yl)(1-methyl-1H-imidazol-5-yl)(2-methylpyridin-4-yl)methanol•TFA], the IC50 in test [1] is 75 nM; in test [2], 17 nM. The inhibition at 6 µM in test [2] was 93%. The dissociation constant Kd in test [3] was 1.2 nM.

(Values after patent publication US9309222B2, “Phenyl linked quinolinyl modulators of RORγt” (Janssen Pharmaceutica NV, priority 2012, dated 2016).)
